Series [1] can be described thus: Effects of vehicle formulas on drug absorption, mouse pharmacokinetics (PK) method (Example 8). The class given is in vivo. Conditions: ICR mice, gavage, solution in DMSO:10% HP-β-CD PBS=1:9. How it is done:
Measurement of the Effects of 5-fluoro-1-(4-fluoro-3-(4-(pyrimidin-2-yl)piperazine-1-carbonyl)benzyl)quinazoline-2,4(1H,3H)-dione Vehicle Formulas on the Drug Absorption Using a Mouse Pharmacokinetics (PK) Method
5-Fluoro-1-(4-fluoro-3-(4-(pyrimidin-2-yl)piperazine-1-carbonyl)benzyl)quinazoline-2,4(1H,3H)-dione in different vehicle formulas at the same dosage was administered to ICR mice by gavage. The blood was sampled at 30 min after gavage, the blood concentrations were measured by LCMS method, and the effects on the drug absorption of different vehicle formulas was made a comparison. The blood concentrations were shown as the table below: […]

The nature of series [2]: Absorption of amorphous solid dispersion HP-55 (1:3), mouse pharmacokinetics (PK) method (Example 11). Type of series: in vivo. Particulars: whole blood, mice, IV, 1 mg/kg, solution in DMSO:10% HP-β-CD PBS (1:9). The method, then:
Measurement of the Absorption Ratio of the Amorphous Solid Dispersions of 5-fluoro-1-(4-fluoro-3-(4-(pyrimidin-2-yl)piperazine-1-carbonyl)benzyl)quinazoline-2,4(1H,3H)-dione:HP-55 (1:3) Using a Mouse Pharmacokinetics (PK) Method
(§1) The solution of 5-fluoro-1-(4-fluoro-3-(4-(pyrimidin-2-yl)piperazine-1-carbonyl)benzyl)quinazoline-2,4(1H,3H)-dione in DMSO:10% HP-β-CD PBS (1:9) was administered to mice at 1 mg/kg by IV. And the homogeneous suspension of the amorphous solid dispersion of 5-fluoro-1-(4-fluoro-3-(4-(pyrimidin-2-yl)piperazine-1-carbonyl)benzyl)quinazoline-2,4(1H,3H)-dione:HP-55 (1:3) in 0.5% MC/water was administered to mice at 10 mg/kg by IG. The blood was sampled at a certain time after administration. The blood concentrations were measured by LCMS method, and the oral absorption was measured by a mouse pharmacokinetics (PK) method.

Series [3] can be described thus: Absorption of amorphous solid dispersion HP-55 (1:3), rat pharmacokinetics (PK) method (Example 12). The class given is in vivo. Particulars: whole blood, Wistar rats, IV, 1 mg/kg, solution in DMSO:10% HP-β-CD PBS (1:9). The method, then:
Measurement of the Absorption Ratio of the Amorphous Solid Dispersions of 5-fluoro-1-(4-fluoro-3-(4-(pyrimidin-2-yl)piperazine-1-carbonyl)benzyl)quinazoline-2,4(1H,3H)-dione:HP-55 (1:3) Using a Rat Pharmacokinetics (PK) Method
as §1, with “Wistar rats” for “mice”, “rat” for “mouse”

Series [4] in a line: Bioavailability after oral administration of the crystalline compound. Conditions: mouse, in vivo, mice, simple mixture of crystalline compound with surfactants (Tween 80) and emulsifiers (methylcellulose).
The next series can be described thus: Water solubility. Type of series: physicochemical.

Consider one molecule from patent US12544378B2, “Solid pharmaceutical formulation of PARP inhibitors and use thereof” (IMPACT THERAPEUTICS (SHANGHAI), INC, priority 2015, dated 2026).

A value given as a limit tells only on which side of the number the result lay.

In series [1], `O=C(c1cc(Cn2c(=O)[nH]c(=O)c3c(F)cccc32)ccc1F)N1CCN(c2ncccn2)CC1` [5-fluoro-1-(4-fluoro-3-(4-(pyrimidin-2-yl)piperazine-1-carbonyl)benzyl)quinazoline-2,4(1H,3H)-dione] displayed an oral absorption rate of 48%. Besides, in series [2], the AUC(0-inf) (usually total exposure, with the tail of the curve extrapolated) turned out to be 997 ng·h/mL; the AUC(0-t) (commonly the area under the concentration-time curve up to a stated or last time point) stood at 991 ng·h/mL; the highest level (Cmax) was 1920 ng/mL; the half-life (as a rule, the time needed for the level to fall by half in the phase considered) was 32.7 min. In series [3] (female), the AUC(0-inf) worked out at 1290 ng·h/mL, the AUC(0-t) was determined as 1250 ng·h/mL, the Cmax (usually the highest concentration seen after dosing) was found to be 618 ng/mL and the half-life was 304 min. Also, in series [3] (male), the AUC(0-inf) was determined as 365 ng·h/mL, the area under the curve AUC(0-t) is 363 ng·h/mL, the Cmax turned out to be 896 ng/mL and the half-life was 51 min. For the same molecule, the bioavailability (usually dose-corrected exposure relative to a reference, in per cent) in series [4] is under 5%. Also, the “water solubility (in words)” value in the series “Water solubility” is recorded as “very low”.
